Test results reported in article PMC7698860, “Discovery and Design of Novel Small Molecule GSK-3 Inhibitors Targeting the Substrate Binding Site” (International Journal of Molecular Sciences, 2020).

Columns and labels:
GSK-3β [1] = biological target: T1, GSK-3β (Oryctolagus cuniculus, UniProt A0A5F9DUX8); assay: In vitro GSK-3β kinase assay (ELISA-based, IRS-1 peptide substrate); assay type: biochemical, rabbit; conditions: for IC50: GSK-3β inhibition, 10 μM ATP; for IC50 / GSK-3β inhibition (in words): in vitro kinase assay; for Effect of Triton ×100 on inhibition of GSK-3β: 20 μM, 0.05% Triton ×100 (colloidal aggregation control); for GSK-3β inhibition (in words): screening hits
Procedure: (§1) An ELISA-based assay was developed in our laboratory to measure GSK-3 activity. In brief, biotin-labelled IRS-1 peptide substrate was bound to streptavidin-coated 96-well microplates. A GSK-3 assay solution (0.1 μg GSK-3β, 20 mM Tris (pH 7.3), 10 mM MgCl2, and 10 μM ATP) was added to each well, together with the candidate compound at indicated concentrations, and the plates were incubated for 15 min at 30 °C. After having been washed (PBS 0.05% tween), the plates were incubated with a specific anti-phospho IRS-1 antibody (Ser^332) (1:2000), followed by HRP-secondary antibody (1:8000). The signal was developed with TMB solution (abcam, Cambridge UK, Cat# ab210902), stopped with H2SO4, and monitored in a plate reader ([…]). Assays were conducted in duplicates in three independent experiments. In the ATP competitive, or, substrate competitive assays, the assays (60 μL) were performed in Eppendorf tubes (to use “unbound” substrate), and 10–20 μL were spotted on the streptavidin-coated plates. Km values were calculated from the non-linear curve fit, and Ki values were calculated by Kapp = Km (1 + [I]/Ki). Bacterially expressed His-tagged rabbit GSK-3β was purified as described, and purified human GSK-3α was purchased from abcam (Cat# ab42597). The selectivity of compound 4-4 against a collection of protein kinases was assayed at the International Center for Kinase Profiling at the MRC unit, University of Dundee, UK.

GSK-3β-F93A mutant = assay: In vitro kinase assay with GSK-3β-F93A mutant; assay type: biochemical
Description: To further confirm that compounds interact with the GSK-3β substrate binding site, we performed in vitro kinase assays with the GSK-3β-F93A mutant in which Phe 93 was replaced by alanine. […] This, in contrast, to SB216763, an established GSK-3 ATP competitive inhibitor [46] that inhibited both wild-type (WT) and the F93A mutant (Figure 3B).
as §1

GSK-3β [2] = biological target: T1, GSK-3β; assay: Michaelis Menten ATP competitive and substrate competitive assays; assay type: biochemical, rabbit; conditions: Lineweaver-Burk plots; for Mode of inhibition versus substrate: lines intersect at the Y-axis
Procedure: We next performed Michaelis Menten competitive assays to examine the ability of 4-3 or 4-4 to compete with ATP or with substrates. […] Subsequently, Michaelis Menten substrate competitive assays were performed and data were analyzed by Lineweaver–Burk plots (Figure 6B). […] The calculated ki values were 7.7 ± 3 and 7.0 ± 0.2 for 4-3 and 4-4 respectively. […] While most of our experiments concentrated on GSK-3β, we also tested the inhibition of GSK-3α by compounds 4-1 through 4-5. […] Inhibition of GSK-3β by 4-3 or 4-4 was not affected by the detergent (Figure 6E). As a final caveat, we evaluated the selectivity of our leading compound 4-4.
as §1

SH-SY5Y cells = assay: Cytoplasmic β-catenin levels in SH-SY5Y cells (immunoblot); assay type: cell-based, human; conditions: 4 h
Procedure: To verify the potential biological activity of our SCI compounds, we tested their ability to inhibit cellular GSK-3. We focused on the SCI compound 4-4 that was the best inhibitor of the five molecules that were tested (4-1–4-5) β-catenin, which is a central Wnt signaling component, and a well-established GSK-3 target. β-catenin phosphorylation by GSK-3 triggers its rapid proteasomal degradation. We, therefore, studied potential alterations in β-catenin levels following treatment with 4-4. Human neuroblastoma SH-SY5Y cells were treated with increasing concentrations of 4-4, and the levels of β-catenin were determined in the cytoplasmic fraction (prepared after cell permeabilization and sup collection), this to avoid possible “masking” of membrane-associated β-catenin. […]
(§2) Equal amounts of proteins (30–50 μg) were subjected to SDS PHAGE gel electrophoresis, transferred to nitrocellulose membranes, and immunoblotted with selected antibodies followed by incubation with HRP-linked anti-rabbit, or, anti-mouse IgG (Cell signaling, MA, USA, and Jackson Immune Research, PA, USA, respectively). ECL developed membranes were imaged in UVITEC Alliance biomolecular imaging, and densitometry analysis of respected bands was analyzed with software provided by the vendor. […]

30 protein kinases = assay: Selectivity against a collection of protein kinases (International Center for Kinase Profiling, Dundee); assay type: biochemical; conditions: 10 μM
Procedure: An ELISA-based assay was developed in our laboratory to measure GSK-3 activity. In brief, biotin-labelled IRS-1 peptide substrate was bound to streptavidin-coated 96-well microplates. A GSK-3 assay solution (0.1 μg GSK-3β, 20 mM Tris (pH 7.3), 10 mM MgCl2, and 10 μM ATP) was added to each well, together with the candidate compound at indicated concentrations, and the plates were incubated for 15 min at 30 °C. After having been washed (PBS 0.05% tween), the plates were incubated with a specific anti-phospho IRS-1 antibody (Ser^332) (1:2000), followed by HRP-secondary antibody (1:8000). The signal was developed with TMB solution (abcam, Cambridge UK, Cat# ab210902), stopped with H2SO4, and monitored in a plate reader ([…]). Assays were conducted in duplicates in three independent experiments. In the ATP competitive, or, substrate competitive assays, the assays (60 μL) were performed in Eppendorf tubes (to use “unbound” substrate), and 10–20 μL were spotted on the streptavidin-coated plates. Km values were calculated from the non-linear curve fit, and Ki values were calculated by Kapp = Km (1 + [I]/Ki). Bacterially expressed His-tagged rabbit GSK-3β was purified as described, and purified human GSK-3α was purchased from abcam (Cat# ab42597). […]

[3] = tested on: Mouse hippocampal primary neurons; assay: Tau (Ser 396) phosphorylation in hippocampal primary neurons (immunoblot); assay type: cell-based; conditions: 20 μM, 4 h
Procedure: (§3) Hippocampi were isolated from C57BL6/J mice (0–1 day old), and tissues were digested with trypsin type XI (Sigma, Rehovot, Israel, Cat # T1005), and DNase type IV (Sigma, cat #D5025). Cells were suspended in a plating medium including MEM supplemented with 10% FBS, transferrin (0.089 mg/m), GlutaMAX (0.75 U/mL) (Sigma, Cat # 35050-038), insulin (16 μM) (Roche, Basel, Switzerland, Cat # 45865100), and SM1 neuronal supplement (STEMCELL, Seattle, WA, USA, Cat # 05711), and plated on glass coverslips coated with Matrigel (Corning, NY, USA, Cat# 356234) in a 24-well plate. The day after plating and twice a week thereafter half of the medium was removed and was replaced with by fresh feeding medium (plating medium lacking insulin and containing Ara-C (3 μM)) (Sigma, Cat# C6645).
as §2, with “vendor. Representative protein bands were taken from the same gel, and each gel represents three independent experiments.” for “vendor.”

[4] = tested on: Mouse hippocampal primary neurons; assay: β-catenin immunostaining in hippocampal primary neurons; assay type: cell-based; conditions: 4-4 5 μM, CHIR99021 10 μM, 4 h
Procedure: as §3, with “The day after plating and twice a week thereafter half of the medium was removed and was replaced with by fresh feeding medium (plating medium lacking insulin and containing Ara-C (3 μM)) (Sigma, Cat# C6645).” left out
Primary neuron cells were treated with 4-4 (5 μM), CHIR99021 (10 μM) (Merck, MA, USA), or, vehicle (DMSO/1%Tween 80) for 4 hr. Cells were fixed with 4% PFA and immunostained with anti-βcatenin and anti-MAP2 (Sypnactic System, Goettingen, Germany, A neuronal marker) antibodies. βcatenin signal was evaluated by Image J software using co-localization finder plugin (https://imagej.nih.gov/ij/plugins/colocalization-finder.html) that calculated the ratio of βcatenin over MAP2 and DAPI in each cell. The average ratio that was determined for control vehicle-treated cells was set to 1 and respective folds of treated cells were calculated accordingly.

T1 sequence (A0A5F9DUX8 entry or part of it): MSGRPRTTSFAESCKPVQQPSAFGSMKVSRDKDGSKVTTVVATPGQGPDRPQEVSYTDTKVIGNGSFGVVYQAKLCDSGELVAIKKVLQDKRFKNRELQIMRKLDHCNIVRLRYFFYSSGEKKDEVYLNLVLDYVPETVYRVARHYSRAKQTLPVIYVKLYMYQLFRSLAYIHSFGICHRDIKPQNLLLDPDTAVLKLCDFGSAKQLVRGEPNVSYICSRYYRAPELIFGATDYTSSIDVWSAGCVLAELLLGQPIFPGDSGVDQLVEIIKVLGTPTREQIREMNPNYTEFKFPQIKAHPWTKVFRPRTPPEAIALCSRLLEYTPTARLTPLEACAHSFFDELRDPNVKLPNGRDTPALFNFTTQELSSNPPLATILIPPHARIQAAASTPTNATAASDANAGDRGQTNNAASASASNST

In the case of Cc1sc2nc3c(SC(C)C(=O)O)cc(C(=O)c4ccccc4O)cn3c(=O)c2c1C (stereo not shown) [Compound 1-6], the IC50 (GSK-3β [1]) is reported as 200 ± 30 µM.
For O=C(O)CNc1cc(N2CCC(c3ccccc3)CC2)c2noc3c2c1C(=O)c1ccccc1-3 [Compound 3-9], the IC50 (GSK-3β [1]) was > 21 µM.
In the case of CCOC(=O)C1CCCN(c2cc(Nc3ccc(C(=O)O)cc3)c3c4c(onc24)-c2ccccc2C3=O)C1 (stereo not shown) [Compound 3-13], the IC50 (GSK-3β [1]) is reported as > 21 µM.
O=C(O)CCNc1cc(N2CCN(c3ccc(F)cc3)CC2)c2noc3c2c1C(=O)c1ccccc1-3 [Compound 3-8] gave an IC50 (GSK-3β [1]) of 8 ± 3 µM.
O=C(O)c1ccc(N2CCN(c3cc(NCCP(=O)(O)O)c4c5c(onc35)-c3ccccc3C4=O)CC2)cc1 [Compound 4-3] was tested, and the “Inhibition of F93A mutant” value (GSK-3β-F93A mutant; 20 μM each) was “did not inhibit”, the “Mode of inhibition versus ATP” value (GSK-3β [2]) was “non-competitive inhibitors for ATP” and the “Mode of inhibition versus substrate” value (GSK-3β [2]) was “substrate competitive inhibitors”. The “Effect of Triton ×100 on inhibition of GSK-3β” value (GSK-3β [1]) was “not affected” and the IC50 (GSK-3β [1]) was 1 to 4 µM.
Cn1cc(C2=C(c3ccc(Cl)cc3Cl)C(=O)NC2=O)c2ccccc21 [SB216763, reference compound] was tested, and the “Inhibition of F93A mutant” value (GSK-3β-F93A mutant; 1 μM) was “inhibited” and the “Inhibition of wild-type (WT) GSK-3β” value (GSK-3β [1]; 1 μM) was “inhibited”.
O=C(O)CCNc1cc(N2CCN(C(=O)c3ccco3)CC2)c2noc3c2c1C(=O)c1ccccc1-3 [Compound 3-5] was tested, and the IC50 (GSK-3β [1]) was > 21 µM.
In the case of “KEAPPSPPQS(p)PF [Compound L803F, reference compound]”, the “Inhibition of F93A mutant” value (GSK-3β-F93A mutant; 20 μM each) is reported as “barely inhibited”.
For O=C1c2ccccc2-c2onc3c(N4CCN(c5ccc(O)cc5)CC4)cc(NCCP(=O)(O)O)c1c23 [Compound 4-4], the “Cytoplasmic β-catenin at higher doses” value (SH-SY5Y cells; 10 μM) was “reduction”, the “Concentration sufficient to activate β-catenin in the cytoplasm” value (SH-SY5Y cells) was 1 to 5 µM and the “Inhibition of F93A mutant” value (GSK-3β-F93A mutant; 20 μM each) was “did not inhibit”. The “Mode of inhibition versus ATP” value (GSK-3β [2]) was “non-competitive inhibitors for ATP”, the “Mode of inhibition versus substrate” value (GSK-3β [2]) was “substrate competitive inhibitors” and the “Selectivity over 30 protein kinases” value (30 protein kinases) was “showed specificity toward GSK-3α and GSK-3β”. The “Phosphorylation of tau (Ser 396)” value [3] was “reduced”, the “β-catenin levels in soma and dendrites of neurons” value [4] was “significant increase” and the “Effect of Triton ×100 on inhibition of GSK-3β” value (GSK-3β [1]) was “not affected”. It also gave an IC50 (GSK-3β [1]) of 1 to 4 µM.
For O=C(O)CCCNc1cc(N2CCN(c3ccc(F)cc3)CC2)c2noc3c2c1C(=O)c1ccccc1-3 [Compound 2-1], the “GSK-3β inhibition (in words)” value (GSK-3β [1]) was “best GSK-3β inhibitors”.
For Cc1c[nH]c(-c2cnc(NCCNc3ccc(C#N)cn3)nc2-c2ccc(Cl)cc2Cl)n1 [CHIR9920, reference compound], the “β-catenin levels in soma and dendrites of neurons” value [4] was “significant increase”.
O=C(O)CC1S/C(=N/N=C/c2cc(Br)ccc2OCc2ccc(Cl)cc2)NC1=O (stereo not shown) [Compound 1-7] gave an IC50 (GSK-3β [1]) of 180 ± 20 µM.
For O=C(O)CCCNc1cc(N2CCN(C(=O)c3ccco3)CC2)c2noc3c2c1C(=O)c1ccccc1-3 [Compound 2-2], the IC50 (GSK-3β [1]) was 21 ± 4 µM and the “GSK-3β inhibition (in words)” value (GSK-3β [1]) was “best GSK-3β inhibitors”.
